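Protocol summary: plate cells (96-well), add compound at 5 concentrations, incubate 48 h, interpolate endpoints linearly. TGI is the concentration that stops growth completely.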
Legend:
Assay in all cases: NCI-60 cell line screen, 48 h
MDA-MB-231 breast = tested on: MDA-MB-231 breast
UACC-257 melanoma = tested on: UACC-257 melanoma
OVCAR-5 ovarian = tested on: OVCAR-5 ovarian
KM12 colon = tested on: KM12 colon
HCT-15 colon = tested on: HCT-15 colon
HL-60(TB) leukemia = tested on: HL-60(TB) leukemia
SNB-75 CNS = tested on: SNB-75 CNS
SK-MEL-28 melanoma = tested on: SK-MEL-28 melanoma
SW-620 colon = tested on: SW-620 colon
IGROV1 ovarian = tested on: IGROV1 ovarian

N#C/C(=C\c1ccc(Cl)cc1)c1nc2ccccc2c(=O)[nH]1
TGI (MDA-MB-231 breast): > 100 µM | TGI (UACC-257 melanoma): > 100 µM | TGI (OVCAR-5 ovarian): > 100 µM | TGI (KM12 colon): > 100 µM | TGI (HCT-15 colon): > 100 µM | TGI (HL-60(TB) leukemia): > 100 µM | TGI (SNB-75 CNS): 61.7 µM | TGI (SK-MEL-28 melanoma): > 100 µM | TGI (SW-620 colon): > 100 µM | TGI (IGROV1 ovarian): > 100 µM

CCOP(=O)(CS(C)=O)O[C@@H]1C[C@H](C)CC[C@H]1C(C)C (stereo not given in full)
TGI (MDA-MB-231 breast): 12.8 µM | TGI (UACC-257 melanoma): 18.7 µM | TGI (OVCAR-5 ovarian): 15.2 µM | TGI (KM12 colon): > 28.7 µM | TGI (HCT-15 colon): 7.81 µM | TGI (HL-60(TB) leukemia): > 36.4 µM | TGI (SNB-75 CNS): > 27.5 µM | TGI (SK-MEL-28 melanoma): > 100 µM | TGI (SW-620 colon): 14.6 µM | TGI (IGROV1 ovarian): 10.3 µM

O=C(Cc1ccccc1)N/N=C(/CCN1CCCC1)CC(c1ccccc1)c1c(O)c2ccccc2oc1=O (stereo not given)
TGI (MDA-MB-231 breast): > 100 µM | TGI (UACC-257 melanoma): > 100 µM | TGI (OVCAR-5 ovarian): > 100 µM | TGI (KM12 colon): > 100 µM | TGI (HCT-15 colon): > 100 µM | TGI (HL-60(TB) leukemia): > 100 µM | TGI (SNB-75 CNS): > 100 µM | TGI (SK-MEL-28 melanoma): > 100 µM | TGI (SW-620 colon): > 100 µM | TGI (IGROV1 ovarian): > 100 µM

O=c1cc(-c2ccc(O)c(O)c2)oc2cc(OC3OC(CO)C(O)C(O)C3O)cc(O)c12 (stereo not given)
TGI (MDA-MB-231 breast): > 100 µM | TGI (UACC-257 melanoma): > 100 µM | TGI (OVCAR-5 ovarian): > 100 µM | TGI (KM12 colon): > 100 µM | TGI (HCT-15 colon): > 100 µM | TGI (HL-60(TB) leukemia): > 100 µM | TGI (SNB-75 CNS): > 100 µM | TGI (SK-MEL-28 melanoma): > 100 µM | TGI (SW-620 colon): > 100 µM | TGI (IGROV1 ovarian): > 100 µM

CC[C@@]1(O)C(=O)OCc2c1c(Cl)c1n(c2=O)Cc2cc3ccccc3nc2-1
TGI (MDA-MB-231 breast): > 100 µM | TGI (UACC-257 melanoma): 26.7 µM | TGI (OVCAR-5 ovarian): 85.8 µM | TGI (KM12 colon): > 95.5 µM | TGI (HCT-15 colon): > 81.6 µM | TGI (HL-60(TB) leukemia): > 26.3 µM | TGI (SNB-75 CNS): 12.7 µM | TGI (SK-MEL-28 melanoma): > 100 µM | TGI (SW-620 colon): > 100 µM | TGI (IGROV1 ovarian): 42.9 µM

CN(C)c1ccc(C(C#N)N2CCCN(C(C#N)c3ccc(N(C)C)cc3)C2c2ccc(N(C)C)cc2)cc1 (stereo not given)
TGI (MDA-MB-231 breast): > 100 µM | TGI (UACC-257 melanoma): > 100 µM | TGI (OVCAR-5 ovarian): > 100 µM | TGI (KM12 colon): > 100 µM | TGI (HCT-15 colon): > 100 µM | TGI (HL-60(TB) leukemia): > 100 µM | TGI (SNB-75 CNS): > 100 µM | TGI (SK-MEL-28 melanoma): > 100 µM | TGI (SW-620 colon): > 100 µM | TGI (IGROV1 ovarian): > 100 µM

CC(=O)Nc1c(C)cc(OCC(=O)O)cc1C
TGI (MDA-MB-231 breast): > 100 µM | TGI (UACC-257 melanoma): > 100 µM | TGI (OVCAR-5 ovarian): > 100 µM | TGI (KM12 colon): > 100 µM | TGI (HCT-15 colon): > 100 µM | TGI (HL-60(TB) leukemia): > 100 µM | TGI (SNB-75 CNS): > 100 µM | TGI (SK-MEL-28 melanoma): > 100 µM | TGI (SW-620 colon): > 100 µM | TGI (IGROV1 ovarian): > 100 µM

N#Cc1cnn2c1n[n+]([O-])c1ccc(Cl)cc12
TGI (MDA-MB-231 breast): 35.5 µM | TGI (UACC-257 melanoma): 23 µM | TGI (OVCAR-5 ovarian): > 76.8 µM | TGI (KM12 colon): > 100 µM | TGI (HCT-15 colon): 4.36 µM | TGI (HL-60(TB) leukemia): 6.52 µM | TGI (SNB-75 CNS): 15.4 µM | TGI (SK-MEL-28 melanoma): 27.7 µM | TGI (SW-620 colon): 29.6 µM | TGI (IGROV1 ovarian): 8.53 µM

COc1ccc(NS(=O)CCc2ccccc2)cc1 (stereo not given)
TGI (MDA-MB-231 breast): > 100 µM | TGI (UACC-257 melanoma): > 100 µM | TGI (OVCAR-5 ovarian): > 100 µM | TGI (KM12 colon): > 100 µM | TGI (HCT-15 colon): > 100 µM | TGI (HL-60(TB) leukemia): > 100 µM | TGI (SNB-75 CNS): > 100 µM | TGI (SK-MEL-28 melanoma): > 100 µM | TGI (SW-620 colon): > 100 µM | TGI (IGROV1 ovarian): > 100 µM

CCn1c(=O)c2c(=O)[nH][nH]c2c2ccccc21
TGI (MDA-MB-231 breast): > 100 µM | TGI (UACC-257 melanoma): > 100 µM | TGI (OVCAR-5 ovarian): > 100 µM | TGI (KM12 colon): > 100 µM | TGI (HCT-15 colon): > 100 µM | TGI (HL-60(TB) leukemia): > 100 µM | TGI (SNB-75 CNS): > 100 µM | TGI (SK-MEL-28 melanoma): > 100 µM | TGI (SW-620 colon): > 100 µM | TGI (IGROV1 ovarian): > 100 µM

O=C1C(NCCc2cc(Br)c(O)c(Br)c2)=CC(=O)c2ncccc21
TGI (MDA-MB-231 breast): 29.5 µM | TGI (UACC-257 melanoma): 7.73 µM | TGI (OVCAR-5 ovarian): 20.2 µM | TGI (KM12 colon): 20.1 µM | TGI (HCT-15 colon): 31.9 µM | TGI (HL-60(TB) leukemia): 12.7 µM | TGI (SNB-75 CNS): 5.34 µM | TGI (SK-MEL-28 melanoma): 10 µM | TGI (SW-620 colon): > 57.7 µM | TGI (IGROV1 ovarian): 10.3 µM

CN(C)c1ccc(C2CC(=O)CC(c3ccc(N(C)C)cc3)C23C(=O)NC(=O)NC3=O)cc1 (stereo not given)
TGI (MDA-MB-231 breast): > 25 µM | TGI (UACC-257 melanoma): > 25 µM | TGI (OVCAR-5 ovarian): > 25 µM | TGI (KM12 colon): > 25 µM | TGI (HCT-15 colon): > 25 µM | TGI (HL-60(TB) leukemia): > 25 µM | TGI (SNB-75 CNS): > 25 µM | TGI (SK-MEL-28 melanoma): > 25 µM | TGI (SW-620 colon): > 25 µM | TGI (IGROV1 ovarian): > 25 µM

COc1ccc2oc(=N)c(C(N)=S)cc2c1
TGI (MDA-MB-231 breast): 54.1 µM | TGI (UACC-257 melanoma): 93.4 µM | TGI (OVCAR-5 ovarian): > 100 µM | TGI (KM12 colon): 84.8 µM | TGI (HCT-15 colon): 36.7 µM | TGI (HL-60(TB) leukemia): > 100 µM | TGI (SNB-75 CNS): 74.8 µM | TGI (SK-MEL-28 melanoma): > 100 µM | TGI (SW-620 colon): > 100 µM | TGI (IGROV1 ovarian): > 100 µM

CCCCCCN(C(=O)Oc1ccccc1)C(C#N)c1ccccc1 (stereo not given)
TGI (MDA-MB-231 breast): > 100 µM | TGI (UACC-257 melanoma): > 100 µM | TGI (OVCAR-5 ovarian): > 100 µM | TGI (KM12 colon): > 100 µM | TGI (HCT-15 colon): > 100 µM | TGI (HL-60(TB) leukemia): > 100 µM | TGI (SNB-75 CNS): > 100 µM | TGI (SK-MEL-28 melanoma): > 100 µM | TGI (SW-620 colon): > 100 µM | TGI (IGROV1 ovarian): > 100 µM

From PubChem BioAssay (NCI)
